Assays:
Fas = assay: Anti-insulin resistance assay: Fas expression at gene level in differentiated 3T3-L1 cells; assay type: cell-based, mouse; settings: cells differentiated for 8 days, FIGS. 19 to 24
Protocol: (§1) To examine whether the samples (Red-dog A & Red-dog B, compounds 1 & 2) are effective as anti-insulin resistance agents, expression levels of resistin, aP2 and Fas in the cells that had been differentiated for 8 days as in Experimental Example 1 were analyzed using the primers of Table 2, below.

aP2 = assay: Anti-insulin resistance assay: aP2 expression at gene level in differentiated 3T3-L1 cells; assay type: cell-based, mouse; settings: cells differentiated for 8 days, FIGS. 19 to 24
Protocol: as §1

resistin = assay: Anti-insulin resistance assay: resistin expression at gene level in differentiated 3T3-L1 cells; assay type: cell-based, mouse; settings: cells differentiated for 8 days, FIGS. 19 to 24
Protocol: as §1

PPARγ [1] = assay: Expression of PPARγ at protein level, SDS-PAGE and immunoblot in 3T3-L1 cells; assay type: cell-based, mouse; settings: 3T3-L1, compared with β-actin; FIGS. 17 and 18
Protocol: (§2) After the 313-L1 cells were treated with the samples (Red-dog A & Red-dog B, Compounds 1 & 2) at regular intervals of two days in the same manner as in the adipocyte differentiation method, they were washed twice with PBS and lyzed in RIPA buffer (50 mM Tris-HCl, pH 8.0, 150 mM sodium chloride, 1% NP-40, 0.5% sodium dexycholate, 0.1% sodium dodecyl sulfate, protease inhibitor). Proteins harvested by centrifugation at 13,000 rpm for 30 min were separated on 8% SDS-PAGE gel and then transferred onto a membrane. The membrane was blocked with TBST containing 5% skim milk and reacted with a primary antibody (PPARγ, C/EBPα) (Santa Cruz) and then with a secondary antibody (Santa Cruz), followed by color development with an ECL reagent (Thermo scientific) to compare the expression level of PPARγ and C/EBPα with that of β-actin.

C/EBRα [2] = assay: Expression of C/EBRα at gene level, real-time PCR in differentiated 3T3-L1 cells; assay type: cell-based, mouse; settings: 3T3-L1 differentiated 8 days, GAPDH control, FIGS. 11 to 16
Protocol: (§3) During adipocyte differentiation, expression levels of PPARγ, C/EBRα and ADD1/SREBP1c are increased.
(§4) After being treated with predetermined concentrations of the samples (Red-dog A, Red-dog B and Compounds 1 & 2) in the same manner as in Experimental Example 1-2, the cells were induced to differentiate into adipocytes for 8 days. The expression levels of PPARγ, C/EBRα and ADD1/SREBP1c were analyzed using real-time PCR. The 3T3-L1 cells were washed twice with PBS after differentiation for 8 days and the cell pellets were used for RNA isolation using an RNA prep kit (Qiagen). cDNA was synthesized from 1 μg of the isolated RNA before real-time PCR using SYBR green (Takara) and the primers given in Table 1, below. As a control gene, GAPDH was used. In this regard, the cDNA synthesized from 1 μg of RNA was diluted 1/50 to a volume of 5 μL and mixed with 0.5 μL of each of 10 pmole primer, 10 μL of 2XSYBR green, and […] of distilled water to give a PCR mix with a total volume of 20 μL. Real-time PCR started with denaturation at 95° C. for 30 sec, followed by 40 thermal cycles of denaturation at 95° C. for 5 sec, annealing for 60° C. for 15 sec and extension at 72° C. for 10 sec. The melt curve consisted of 80 melt cycles, starting at 55° C. to 95° C. with increments of 0.5° C. per cycle. Desired fluorescent signals were detected (data analysis was done with Bio-Rad MyiQ program).

PPARγ [3] = target: T1, PPARγ (Homo sapiens, UniProt P37231); assay: PPARγ transcriptional activity, PPRE luciferase reporter in HEK 293T cells; assay type: cell-based; settings: 24 hours, alone or with 10 μM troglitazone, FIGS. 9 and 10
T1 construct: expressed in transfected cells; host or cells: HEK 293T
T1 sequence (P37231 1-505): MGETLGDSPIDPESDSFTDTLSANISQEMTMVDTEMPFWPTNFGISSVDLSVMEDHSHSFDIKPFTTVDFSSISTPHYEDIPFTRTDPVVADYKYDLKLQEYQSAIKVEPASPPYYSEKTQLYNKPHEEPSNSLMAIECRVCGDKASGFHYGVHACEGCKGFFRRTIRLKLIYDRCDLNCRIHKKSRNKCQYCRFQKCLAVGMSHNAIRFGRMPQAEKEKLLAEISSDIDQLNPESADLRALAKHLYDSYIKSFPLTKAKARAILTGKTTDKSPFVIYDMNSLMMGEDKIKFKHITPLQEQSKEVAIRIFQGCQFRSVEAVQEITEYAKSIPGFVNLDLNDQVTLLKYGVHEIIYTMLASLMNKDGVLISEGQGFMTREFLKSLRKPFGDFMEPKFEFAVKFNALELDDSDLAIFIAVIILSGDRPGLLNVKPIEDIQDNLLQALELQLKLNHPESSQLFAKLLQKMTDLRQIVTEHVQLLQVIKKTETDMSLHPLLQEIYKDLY
Protocol: HEK 293T cells were co-transfected with a recombinant pGL3-basic luciferase expression vector (Promega) carrying a PPRE (PPARγ response element) gene and a PPARγ gene and a pRL-SV-40 plasmid (Promega) carrying a Renilla luciferase cDNA as a control reporter. One day after transfection, the cells were treated for 24 hours with predetermined concentrations of the samples (Red-dog A, Red-dog B and Compounds 1 & 2) alone or in combination with 10 μM troglitazone, a ligand to PPARγ. The inhibitory activity of the samples against the transcription factor PPARγ was determined by measuring the expression levels of luciferase.

[4] = test system: mouse preadipocyte 3T3-L1; assay: Adipocyte differentiation of 3T3-L1 preadipocytes (MDI induction, Oil Red O staining, absorbance at 510 nm); assay type: cell-based; settings: FIGS. 3 to 8; for differentiation of preadipocytes into adipocytes: 3T3-L1, MDI-induced, day 8, Oil Red O; for lipid accumulation of adipocytes: 3T3-L1, Oil Red O lipid contents
Protocol: The mouse preadipocyte 3T3-L1 was cultured at 37° C. in 10% BCS DMEM under a 5% CO2 condition.
3T3-L1 preadipocytes were seeded at a density of 5×10^4 cells/well into 24-well plates. After being grown to 100% confluency, the cells were incubated for an additional two days. Then, the preadipocytes were induced to differentiate into adipcytes in the presence of MDI (0.5 mM 3-isobutyl-1-methylxanthine (IBMX), 1 μM dexamethasone, 1 μg/ml insulin) in 10% FBS DMEM. After incubation for 48 hours in this medium, the cells were cultured for two days in 10% FBS DMEM containing 1 μg/ml insulin. Subsequently, the cells were cultured for four days in 10% FBS DMEM, with replacement of the medium with a fresh one every two days. During adipocyte differentiation, the cells were treated with predetermined concentrations of the samples. On day 8 at which differentiation was completed, observations were made of the differentiation of the cells. In this connection, the adipose differentiation was qualitatively analyzed with Oil Red 0 staining under an optical microscope and quantitatively analyzed by measuring absorbance at 510 nm.

C/EBRα [5] = assay: Expression of C/EBRα at protein level, SDS-PAGE and immunoblot in 3T3-L1 cells; assay type: cell-based, mouse; settings: 3T3-L1, compared with β-actin; FIGS. 17 and 18
Protocol: as §2

ADD1/SREBP1c = assay: Expression of ADD1/SREBP1c at gene level, real-time PCR in differentiated 3T3-L1 cells; assay type: cell-based, mouse; settings: 3T3-L1 differentiated 8 days, GAPDH control, FIGS. 11 to 16
Protocol: as §3, §4

PPARγ [6] = assay: Expression of PPARγ at gene level, real-time PCR in differentiated 3T3-L1 cells; assay type: cell-based, mouse; settings: 3T3-L1 differentiated 8 days, GAPDH control, FIGS. 11 to 16
Protocol: as §3, §4

Compound	expression of Fas at the genetic level (Fas)	expression of Fas at the genetic level (Fas; listed as Chemical Formula 1)	expression of aP2 at the genetic level (aP2)	expression of aP2 at the genetic level (aP2; listed as Chemical Formula 1)	expression of resistin at the genetic level (resistin)	expression of resistin at the genetic level (resistin; listed as Chemical Formula 1)	expression of PPARγ at protein level (PPARγ [1])	expression of C/EBRα at the genetic level (C/EBRα [2])	transcriptional activity of PPARγ (PPARγ [3])	differentiation of preadipocytes into adipocytes [4]	lipid accumulation of adipocytes [4]	expression of C/EBRα at protein level (C/EBRα [5])	expression of ADD1/SREBP1c at the genetic level (ADD1/SREBP1c)	expression of PPARγ at the genetic level (PPARγ [6])	expression of Fas at the genetic level (Fas; listed as Chemical Formula 2)	expression of aP2 at the genetic level (aP2; listed as Chemical Formula 2)	expression of resistin at the genetic level (resistin; listed as Chemical Formula 2)
COc1cc(OC2OC(CO)[C@@H](O)[C@H](O)[C@@H]2O)ccc1O (stereo partly drawn) [Compound 1, methoxy-hydroquinone-4-β-D-glucopyranoside]	inhibit the expression of resistin, aP2 and Fas in dose-dependent manners	significantly suppressed	inhibit the expression of resistin, aP2 and Fas in dose-dependent manners	significantly suppressed	inhibit the expression of resistin, aP2 and Fas in dose-dependent manners	significantly suppressed	inhibited the expression of PPARγ and C/EBRα in dose-dependent manners	inhibit the expression of PPARγ, C/EBRα and ADD1/SREBP1c in dose-dependent manners	inhibited the transcriptional activity of PPARγ in a dose-dependent manner	inhibited the differentiation of preadipocytes into adipocytes in dose-dependent manners	inhibitory activities	inhibited the expression of PPARγ and C/EBRα in dose-dependent manners	inhibit the expression of PPARγ, C/EBRα and ADD1/SREBP1c in dose-dependent manners	inhibit the expression of PPARγ, C/EBRα and ADD1/SREBP1c in dose-dependent manners	–	–	–
CCCCCC(O)C(O)/C=C/C(O)CCCCCCCC(=O)O (stereo not shown) [Compound 2, 9,12,13-trihydroxy-10(E)-octadecenoic acid]	inhibit the expression of resistin, aP2 and Fas in dose-dependent manners	–	inhibit the expression of resistin, aP2 and Fas in dose-dependent manners	–	inhibit the expression of resistin, aP2 and Fas in dose-dependent manners	–	inhibited the expression of PPARγ and C/EBRα in dose-dependent manners	inhibit the expression of PPARγ, C/EBRα and ADD1/SREBP1c in dose-dependent manners	inhibited the transcriptional activity of PPARγ in a dose-dependent manner	inhibited the differentiation of preadipocytes into adipocytes in dose-dependent manners	inhibitory activities	inhibited the expression of PPARγ and C/EBRα in dose-dependent manners	inhibit the expression of PPARγ, C/EBRα and ADD1/SREBP1c in dose-dependent manners	inhibit the expression of PPARγ, C/EBRα and ADD1/SREBP1c in dose-dependent manners	significantly suppressed	significantly suppressed	significantly suppressed

From patent publication US20130102554A1, “COMPOSITION FOR TREATMENT OF OBESITY USING WHEAT BRAN EXTRACT OR ACTIVE INGREDIENT ISOLATED THEREFROM” (priority 2009, published 2013)
